Here are results for ten molecules from patent US9278925B2, “Substituted 3-(biphenyl-3-yl)-4-hydroxy-8-methoxy-1-azaspiro[4.5]dec-3-en-2-one” (BAYER INTELLECTUAL PROPERTY GMBH, priority 2011, dated 2016).

Data set [1] deals with human serum albumin (HSA) (Homo sapiens (Human), UniProt P02768). Put plainly: Protein binding to human serum albumin (HSA-Transil). Particulars: buffer pH 7.4. The protocol: Assays for Determining Membrane Affinity logMA and Protein Binding to Human Serum Albumin (HSA): Determination of membrane affinity and protein binding to human serum albumin (HSA) was carried out via Transil technology (literature: A. Loidl-Stahlhofen, A. Eckert, T. Hartmann, M. […] Pharm Sci 90, 599-606 (2001)). Transil® (commercially available from Sovicell in Leipzig, Germany) are glass beads (diameter 10-12 μm) coated with a double-layer membrane of phosphatidylcholine (MA-Transil) or covalently attached human serum albumin (HSA-Transil). To determine the logMA and the protein binding constant to HSA, the commercially available TRANSIL Intestinal Absorption & HSA Binding Combined Assay Kit was used. This is a 96-well microtitre plate (96 well-MTP) which is filled with Transil and can be used to determine MA-Transil and HSA-Transil binding of in each case eight active compounds. […] Two wells serve as reference and are only filled with buffer pH 7.4. Five further wells contain MA-Transil in various increasing concentrations, the five remaining wells contain HSA-Transil in various increasing concentrations. To determine binding of an active compound to Transil, the supernatant of the wells with Transil was quantified against the reference solution without Transil via HPLC-MS coupling (HPLC-MS=high performance liquid chromatography/mass spectrometry). This is how the individual steps of the assay were carried out: From the internal substance store, the active compounds were delivered in a 96-well MTP. This plate is referred to as mother plate. […] Warfarin, whose membrane affinity and binding to HSA is known, serves to check whether the measurement is correct. […] Using a Hamilton pipetting robot Microlab STAR, the 96 active compounds from the daughter plate were divided onto 12 Transil plates in total. From each well of the daughter plate, 12 times 20 μl were removed. The concentration of each well of the Transil plate was 0.25 μmol/liter, which corresponds to a dilution of 1 to 10. […] The filled Transil plates were each resuspended for two minutes, then allowed to stand at room temperature for at least two minutes and then centrifuged at 600 rotations per minute for five minutes. The pipetting robot was then used to remove 20 μl of supernatant from each well of the Transil plate and to transfer these to a separate microtitre plate. […] Prior to quantification of the active compounds by HPLC-MS, an optimization has to be carried out for each active compound where by way of a single injection daughter ion and optimum electrical voltages are determined. […] This microtitre plate was measured by HPLC-MS using the software Discovery Quant Optimize from AB Sciex. The three pooled microtitre plates were measured by HPLC-MS using the software Discovery Quant Analyze from AB Sciex. • Sciex Triple Quad 5500 mass spectrometer (from AB Sciex) • PAL Autosampler DLW Option Software: Analyst 1.4 (from AB Sciex) • Discovery Quant Optimize (from AB Sciex) • Discovery Quant Analyze (from AB Sciex) Optimization: […] Column: Poroshell 120 SB-C18 2.7 μm 3×30 mm Injection volume: 2 μl Flow rate: 1 ml/min: […] Evaluation of the HPLC peaks was carried out using Discovery Quant Analyze. The results (logMA and binding constant to HSA Kd) were calculated using an Excel workbook provided by Sovicell.
Chain of human serum albumin (HSA) (P02768 25-609): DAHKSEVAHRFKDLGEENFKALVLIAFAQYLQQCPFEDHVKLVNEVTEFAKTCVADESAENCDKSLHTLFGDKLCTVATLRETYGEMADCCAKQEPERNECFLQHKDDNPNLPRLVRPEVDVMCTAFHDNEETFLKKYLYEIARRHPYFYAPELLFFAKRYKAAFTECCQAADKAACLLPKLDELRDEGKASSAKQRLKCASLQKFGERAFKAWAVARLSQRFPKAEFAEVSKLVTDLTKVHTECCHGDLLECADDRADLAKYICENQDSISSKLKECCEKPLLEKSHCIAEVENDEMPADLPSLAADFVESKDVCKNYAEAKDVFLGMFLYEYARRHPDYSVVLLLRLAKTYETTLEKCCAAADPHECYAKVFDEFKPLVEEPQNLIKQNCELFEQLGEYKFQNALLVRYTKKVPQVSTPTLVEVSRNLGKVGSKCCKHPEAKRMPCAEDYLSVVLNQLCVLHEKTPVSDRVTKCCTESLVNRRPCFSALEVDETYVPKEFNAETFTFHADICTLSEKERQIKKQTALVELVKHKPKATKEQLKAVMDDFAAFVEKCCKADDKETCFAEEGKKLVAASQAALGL

The nature of data set [2]: Plasma protein binding by equilibrium dialysis. It is filed as in vitro ADME. As for the experimental part: The binding of test substances to plasma proteins is determined by equilibrium dialysis by means of the Ht-dialysis apparatus (96-well) made of Teflon and a semipermeable membrane (regenerated cellulose, MWCO 12-14K). This separates 150 μl each of a plasma side and a buffer side (50 mM phosphate buffer). The test substance is added in 2 concentrations (usually 3 and 0.3 μM) to the plasma side and binds to plasma proteins. The unbound fraction of the test substance passes through the membrane and is distributed on either side until equilibrium is established (after approx. 6-8 h at 37° C.). The substance concentration on the buffer side and the plasma side is determined by LC-MS analysis. For this, both sides are brought by dilution with buffer or plasma to the same matrix (10% plasma) and then precipitated with methanol. The free (unbound) fraction (fu) is calculated from the quotient of the buffer and plasma concentration. Stability tests and recovery tests are run concurrently as controls. In addition, the substance in buffer is dialysed against buffer, to check the nonspecific binding to apparatus and membrane and establishment of equilibrium. Because during incubation the osmotic pressure of the plasma proteins leads to dilution of the plasma (volume shift), this possible error is determined by weighing blank plasma samples and is included in the calculation of fu. Establishment of equilibrium and plasma stability should have a value not lower than 80% and the recovery should be at least 30%. A free fraction of <1% is regarded as high, between 1 and 10% as moderate and >10% as low plasma protein binding.

Setting [3] is: human plasma, read-out: fu [%] (human).
[4] abbreviates: mouse plasma, read-out: fu [%] (mouse).
Where [5] appears, read: rat plasma, read-out: fu [%] (rat).

pKd: −log10 of the molar value. Where two headings read alike, the source gives them in different places.

Take `CO[C@]1(C(F)(F)F)CC[C@]2(CC1)NC(=O)C(c1cc(-c3ccc(Cl)cc3)ccc1C)=C2O` [Example 1-1, (5r,8r)-3-(4′-Chloro-4-methylbiphenyl-3-yl)-4-hydroxy-8-methoxy-8-(trifluoromethyl)-1-azaspiro[4.5]dec-3-en-2-one]: the pKd in data set [1] is 5.76. Also, the fraction unbound in data set [2] (setting [3]) is 0.002; in data set [2] (setting [4]) it was 0.0082.
`CO[C@]1(C(F)(F)F)CC[C@]2(CC1)NC(=O)C(c1cc(-c3ccc(Cl)c(F)c3)ccc1C)=C2O` [Example 1-2, (5r,8r)-3-(4′-Chloro-3′-fluoro-4-methylbiphenyl-3-yl)-4-hydroxy-8-methoxy-8-(trifluoromethyl)-1-azaspiro[4.5]dec-3-en-2-one] gave a pKd in data set [1] of 5.75. Also, the fraction unbound was 0.0026 in data set [2] (setting [3]) and 0.014 in data set [2] (setting [4]).
On the same counts, the results for `COC[C@]1(OC)CC[C@@]2(CC1)NC(=O)C(c1cc(-c3ccc(Cl)cc3)ccc1C)=C2O` [Example 1-3, (5r,8r)-3-(4′-Chloro-4-methylbiphenyl-3-yl)-4-hydroxy-8-methoxy-8-(methoxymethyl)-1-azaspiro[4.5]dec-3-en-2-one] are 5.32, 0.0041 and 0.038.
`COC[C@]1(OC)CC[C@@]2(CC1)NC(=O)C(c1cc(-c3ccc(Cl)c(F)c3)ccc1C)=C2O` [Example 1-4, (5r,8r)-3-(4′-Chloro-3′-fluoro-4-methylbiphenyl-3-yl)-4-hydroxy-8-methoxy-8-(methoxymethyl)-1-azaspiro[4.5]dec-3-en-2-one] had a negative logarithm of the Kd (pKd) in data set [1] of 5.55. In addition, the fraction unbound in data set [2] (setting [3]) was determined as 0.0037; in data set [2] (setting [4]), 0.0217; in data set [2] (setting [5]) it was 0.0021.
Regarding `CO[C@]1(C)CC[C@]2(CC1)NC(=O)C(c1cc(-c3ccc(Cl)cc3)ccc1C)=C2O` [Example V.1-a, (5r,8r)-3-(4′-Chloro-4-methylbiphenyl-3-yl)-4-hydroxy-8-methoxy-8-methyl-1-azaspiro[4.5]dec-3-en-2-one], the pKd in data set [1] was 5.32. Moreover, in data set [2], the “fu [%] (human)” value is reported as 0.38% and the “fu [%] (rat)” value was found to be 0.23%. Also, the “fu [%] (mouse)” value in data set [2] (mouse plasma) worked out at 2.49%.
On the same counts, the results for `CO[C@]1(C)CC[C@]2(CC1)NC(=O)C(c1cc(-c3ccc(Cl)c(F)c3)ccc1C)=C2O` [Example V.2-a, (5r,8r)-3-(4′-Chloro-3′-fluoro-4-methylbiphenyl-3-yl)-4-hydroxy-8-methoxy-8-methyl-1-azaspiro[4.5]dec-3-en-2-one] are 5.55, 0.39%, 0.23% and 2.8%.
For the molecule `Cc1ccc(-c2ccc(Cl)cc2)cc1C1=C(O)[C@]2(CC[C@](O)(C(F)(F)F)CC2)NC1=O` [V.1-c, (5r,8r)-3-(4′-Chloro-4-methylbiphenyl-3-yl)-4,8-dihydroxy-8-(trifluoromethyl)-1-azaspiro[4.5]dec-3-en-2-one], in data set [1], the pKd was 5.16.
In turn, `Cc1ccc(-c2ccc(Cl)c(F)c2)cc1C1=C(O)[C@]2(CC[C@](O)(C(F)(F)F)CC2)NC1=O` [V.2-c, (5r,8r)-3-(4′-Chloro-3′-fluoro-4-methylbiphenyl-3-yl)-4,8-dihydroxy-8-(trifluoromethyl)-1-azaspiro[4.5]dec-3-en-2-one] showed a pKd in data set [1] of 5.86.
`COC[C@H]1CC[C@]2(CC1)NC(=O)C(c1cc(-c3ccc(Cl)cc3)ccc1C)=C2O` [V.3-b, (5s,8s)-3-(4′-Chloro-4-methylbiphenyl-3-yl)-4-hydroxy-8-(methoxymethyl)-1-azaspiro[4.5]dec-3-en-2-one] gave a pKd in data set [1] of 5.38. In addition, the values for the fraction unbound in data set [2] (setting [3]), in data set [2] (setting [4]) and in data set [2] (setting [5]) were 0.0036, 0.109 and 0.0779, respectively.
In data set [1], `COC[C@H]1CC[C@]2(CC1)NC(=O)C(c1cc(-c3ccc(Cl)c(F)c3)ccc1C)=C2O` [V.4-b, (5s,8s)-3-(4′-Chloro-3′-fluoro-4-methylbiphenyl-3-yl)-4-hydroxy-8-(methoxymethyl)-1-azaspiro[4.5]dec-3-en-2-one] gave a pKd of 5.44. The fraction unbound turned out to be 0.0141 in data set [2] (setting [3]), 0.0176 in data set [2] (setting [4]) and 0.0011 in data set [2] (setting [5]). Also, the fu ratio mouse/human in data set [2] (mouse and human, plasma, Table 5) stood at 1.
